Laboratory results taken from patent US8372955B2, “Purified antibody to the extracellular domain of NKp44L” (Assistance Publique Hopitaux de Paris, priority 2003, dated 2013).

What was measured:
[1] = test system: purified CD4+ T cells; test: NK lysis sensitivity of treated CD4+ T cells, 4-h 51Cr-release assay with activated autologous purified NK cells; assay type: cell-based, human; conditions: 6-mers peptide, preliminary experiment
Experimental: NK lines were generated from PBMC, and then purified using the StemSep cell separation system and the NK cell enrichment antibody cocktail (StemCell technologies). NK purified cells were cultured in MyeloCult H5100 medium (StemCell technologies) supplemented with 100 units rhIL-2 (Boheringer). The purity of these preparations was evaluated by flow cytometry after staining with anti-CD3 (BD), anti-CD56 (BD), anti-NKp44, and anti-NKp46 mAbs.
The cytololytic activity was assayed in 4-h ^51Cr-release assay as previously described. Briefly, the target cells were labeled for 2-h at 37° C. with 100 μCi per 10^6 cells Na^51Cr (Amersham), and washed twice with culture medium. The target cells were then distributed in round-bottomed 96-well microtiter plates (4×10^3 cells per well), and the effector cells were added at several E/T ratio. The plates were incubated 4-h at 37° C. The supernatant were then collected and ^51Cr-release was measured in a gamma counted. In experiments in which Abs were included, these were added to final concentration of 20 μg/ml. The relative specific ^51Cr-release was calculated as previously described. Values for spontaneous ^51Cr-release, which are deducted in the calculation, were between 10 and 20% of the total incorporated radioactivity. The results are presented after subtraction of the nonspecific lysis obtained with control targets. […]

[2] = test system: purified CD4+ T cells; assay type: cell-based, human; conditions: 6-mers peptide, preliminary experiment

With “H-SWSNKS-OH [NH2-SWSNKS—COOH, NH2-SWSNKS—COOH (SEQ ID NO: 7)]” the NK cytotoxic activity [1] was “any increased” and the “Cell surface expression of NKp44L” value [2] was “any increased”.
